Laboratory results as given in US6777402B2, “Water-soluble porphyrin derivatives for photodynamic therapy, their use and manufacture” (CeramOptec Industries, Inc., priority 2001, dated 2004).
In brackets after ≈: the same amount, converted by molar mass.

Legend:
physchem = settings: water
[1] = Water solubility of salts with hydrophilic amines; settings: as salts with hydrophilic amines

Row | Compound | solubility (physchem) [µg/mL] | water solubility compared with the respective chlorin e6 salts [1]
1 | C=Cc1c(C)c2cc3nc(c(CC(=O)O)c4[nH]c(cc5nc(cc1[nH]2)C(C)=C5CC)c(C)c4C(=O)O)[C@@H](CCC(=O)O)[C@@H]3C [(7), chlorin e6] | > 5000 | –
2 | C=Cc1c(C)c2cc3nc(c4c5[nH]c(cc6nc(cc1[nH]2)C(C)=C6CC)c(C)c5C(=O)OC4=O)[C@@H](CCC(=O)O)[C@@H]3C [(8), purpurin 18] | – | remarkably lower water solubility
3 | C=Cc1c(C)c2cc3nc(c(C(=O)O)c4[nH]c(cc5nc(cc1[nH]2)C(C)=C5CC)c(C)c4C(=O)O)[C@@H](CCC(=O)O)[C@@H]3C [(9), chlorin p6] | – | remarkably lower water solubility
4 | CCC1=C(C)c2cc3[nH]c(cc4nc(c5c6[nH]c(cc1n2)c(C)c6C(=O)C5)[C@@H](CCC(=O)O)[C@@H]4C)c(C)c3CC [(36), mesopyropheophorbide a] | 40 (≈ 74.5 µM) | –
5 | pheophorbide a [(4)] | – | remarkably lower water solubility
